# According to patent US11780845B2 (Relay Therapeutics, Inc., priority 2019, dated 2023):
# System: SNU16 cells
# Experiment: SNU16 Cancer Cell Line Proliferation Assay
# Assay type: cell-based
# Conditions: Homo sapiens; SNU-16 cells
# Outline: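 SNU16 cells were seeded, held 24 h at 37 degrees, then dosed with an 11-point 3-fold dilution series prepared from a 10 mM DMSO stock. After 96 h incubation, viability was read by CellTiter Glo luminescence.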
row,Structure (SMILES),IC50 [nM]
1,C=C(C)C(=O)Nc1ccc(-c2c(-c3ccc(C(=O)NCC4CCO4)cc3)c3c(N)ncnc3n2C)cc1 (stereo not shown) [Example 348],250 to 1000
2,C=C(C)C(=O)Nc1ccc(-c2c(-c3ccc(C(=C)N[C@H]4CCOC4)cc3)c3c(N)ncnc3n2C)cc1 [Example 335],250 to 1000
3,C=CC(=O)N1CCC(n2cc(-c3c(-c4ccc(Oc5ccccc5)cc4)c4c(N)ncnc4n3C)cn2)C(O)C1 (stereo not shown) [Example 607],≤ 100
4,C=C(C)C(=O)Nc1ccc(-c2c(-c3ccc(Oc4nccc(C)n4)cc3F)c3c(N)ncnc3n2C)cc1 [Example 425],≤ 100
5,C=C(C)C(=O)Nc1ccc(-c2c(-c3ccc(C(=O)N(C)CC(F)(F)F)cc3)c3c(N)ncnc3n2C)cc1 [Example 304],≤ 100
6,C=C(C)C(=O)Nc1ccc(-c2c(-c3ccc(Oc4cccc(F)c4)nc3)c3c(N)ncnc3n2C)cc1 [Example 167],100 to 250
7,C=C(C)C(=O)Nc1ccc(-c2c(-c3ccc(Cn4nccc4C)cc3)c3c(N)ncnc3n2C)cc1 [Example 266],250 to 1000
8,C=C(C)C(=O)Nc1ccc(-c2c(-c3ccc(C(=O)N(C)CC(C)(C)O)cc3)c3c(N)ncnc3n2C)cc1 [Example 368],250 to 1000
9,"C=C(C)C(=O)Nc1ccc(-c2c(-c3ccc(C(=O)N4CC[C@@H]5C[C@@H]54)cc3)c3c(N)ncnc3n2C)c(F)c1 (single isomer, unassigned) [Example 464]",≤ 100
10,C=CC(=O)Nc1ccc(-c2c(-c3ccc(Oc4nccc(C)n4)c(OC)c3)c3c(N)ncnc3n2C)cc1 [Example 38],≤ 100
11,C=C(C)C(=O)Nc1ccc(-c2c(-c3ccc(C(=O)N4CC5CC4C5)cc3F)c3c(N)ncnc3n2C)cc1 [Example 562],≤ 100
12,C=C(C)C(=O)Nc1ccc(-c2c(-c3ccc(N4CCCCC4=O)cc3)c3c(N)ncnc3n2C)cc1 [Example 186],250 to 1000
13,"C=C(C)C(=O)Nc1ccc(-c2c(C3=CC[C@@H](C(=O)N4CCC[C@H]4C#N)CC3)c3c(N)ncnc3n2C)cc1 (single isomer, unassigned) [Example 582]",≤ 100
14,C=C(C)C(=O)Nc1ccc(-c2c(-c3ccc(C(=O)N4CCCC4)cc3)c3c(N)ncnc3n2C)cc1 [Example 95],≤ 100
15,C=CC(=O)N1CCC(c2c(-c3ccc(-c4noc(C)n4)cc3)c3c(N)ncnc3n2C)C1 (stereo not shown) [Example 767],100 to 250
16,C=C(C)C(=O)Nc1ccc(-c2c(-c3ccc(C(=O)N[C@@H](CO)CC4CC4)cc3)c3c(N)ncnc3n2C)cc1 [Example 329],250 to 1000
17,C=C(C)C(=O)Nc1ccc(-c2c(-c3ccc(C(=O)N4CCCC4)cc3)c3c(N)ncnc3n2C)c(OC)c1 [Example 433],≤ 100
18,C=C(C)C(=O)Nc1ccc(-c2c(-c3ccc(S(=O)(=O)NCC(C)(C)O)cc3)c3c(N)ncnc3n2C)cc1 [Example 310],250 to 1000
19,C=CC(=O)N1CCC(c2c(-c3cnn(-c4cccnc4)c3)c3c(N)ncnc3n2C)C1 (stereo not shown) [Example 778],≤ 100

# Further lines, results first:
row,IC50 [nM],Structure (SMILES)
1,250 to 1000,C=CC(=O)Nc1ccc(-c2c(C3=CCC(NC(C)=O)CC3)c3c(N)ncnc3n2C)cc1 (stereo not shown) [Example 171]
2,≤ 100,C=C(C)C(=O)Nc1ccc(-c2[nH]c3ncnc(N)c3c2-c2ccc(Oc3cccc(C)n3)c(OCC)c2)cc1 [Example 788]
3,≤ 100,C=CC(=O)Nc1ccc(-c2c(-c3ccc(Oc4cccc(C)n4)cc3)c3c(N)ncnc3n2C)cc1F [Example 11]
4,250 to 1000,C=C(C)C(=O)Nc1ccc(-c2c(-c3ccc(C(=O)N4CCOCC4)cc3)c3c(N)ncnc3n2C)cc1 [Example 176]
5,≤ 100,C=C(C)C(=O)Nc1ccc(-c2c(-c3ccc(C(=O)N[C@@H](COC)C4CC4)cc3)c3c(N)ncnc3n2C)cc1 [Example 346]
6,250 to 1000,C=C(C)C(=O)Nc1ccc(-c2c(C3=CCC(C(=O)NC)CC3)c3c(N)ncnc3n2C)cc1 (stereo not shown) [Example 201]
7,≤ 100,C=C(C)C(=O)Nc1ccc(-c2c(-c3ccc(C(=O)NC4CCOC4)cc3)c3c(N)ncnc3n2C)cc1 (stereo not shown) [Example 283]
8,≤ 100,CC#CC(=O)N1CCC(c2c(-c3ccc(Oc4cccc(C)n4)cc3)c3c(N)ncnc3n2C)CC1 [Example 695]
9,≤ 100,C=C(C)C(=O)Nc1ccc(-c2c(-c3ccc(C(=O)NC(CF)CF)cc3)c3c(N)ncnc3n2C)cc1 [Example 371]
10,≤ 100,C=CC(=O)N1CCCC(n2cc(-c3c(-c4ccc(Oc5cccc(C)n5)cc4)c4c(N)ncnc4n3C)cn2)C1C (stereo not shown) [Example 627]

# Biological target: FGFR2 (Homo sapiens (Human), UniProt P21802)
# Sequence (P21802 22-821): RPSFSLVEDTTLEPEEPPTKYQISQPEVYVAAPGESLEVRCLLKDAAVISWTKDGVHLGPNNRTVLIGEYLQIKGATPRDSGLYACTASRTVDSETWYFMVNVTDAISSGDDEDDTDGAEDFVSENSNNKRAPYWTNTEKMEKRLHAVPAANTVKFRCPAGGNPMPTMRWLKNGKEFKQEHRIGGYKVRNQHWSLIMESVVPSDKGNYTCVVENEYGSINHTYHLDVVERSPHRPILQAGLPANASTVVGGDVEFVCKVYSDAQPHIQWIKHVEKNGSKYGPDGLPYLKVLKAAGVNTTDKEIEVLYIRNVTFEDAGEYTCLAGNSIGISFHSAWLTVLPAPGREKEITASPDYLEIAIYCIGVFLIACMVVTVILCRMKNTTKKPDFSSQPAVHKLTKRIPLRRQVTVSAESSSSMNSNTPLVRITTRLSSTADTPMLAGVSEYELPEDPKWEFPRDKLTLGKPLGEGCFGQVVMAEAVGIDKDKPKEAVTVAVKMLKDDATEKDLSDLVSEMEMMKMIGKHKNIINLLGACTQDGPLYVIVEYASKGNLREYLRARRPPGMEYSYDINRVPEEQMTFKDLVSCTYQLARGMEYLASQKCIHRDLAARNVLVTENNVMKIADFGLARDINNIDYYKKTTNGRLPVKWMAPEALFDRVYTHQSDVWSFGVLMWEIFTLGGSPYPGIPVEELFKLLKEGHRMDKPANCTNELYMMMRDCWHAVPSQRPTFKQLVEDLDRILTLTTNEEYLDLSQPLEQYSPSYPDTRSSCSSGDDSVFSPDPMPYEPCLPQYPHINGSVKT
# Experiment: FGFR2 Biochemical Caliper Assay
# Conditions: not given
# Description: Compounds of the present invention were also tested in a FGFR2 Biochemical Caliper Assay. Compounds were prepared in 10 mM DMSO solution and serially diluted into 11 concentrations by 3-fold dilution. […] 5 uL of ATP solution (100 uM) was added to start the reaction and the plate was incubated for 90 minutes, then 70 uL of stopping buffer (0.5M EDTA) was added to terminate the reaction. Each well was analyzed using EZ reader.
row,Structure (SMILES),IC50 [nM]
1,C=C(C)C(=O)Nc1ccc(-c2c(-c3ccc(C(=O)NCC4CCO4)cc3)c3c(N)ncnc3n2C)cc1 (stereo not shown) [Example 348],< 100
2,C=C(C)C(=O)Nc1ccc(-c2c(-c3ccc(C(=C)N[C@H]4CCOC4)cc3)c3c(N)ncnc3n2C)cc1 [Example 335],250 to 1000
3,C=CC(=O)N1CCC(n2cc(-c3c(-c4ccc(Oc5ccccc5)cc4)c4c(N)ncnc4n3C)cn2)C(O)C1 (stereo not shown) [Example 607],< 100
4,C=C(C)C(=O)Nc1ccc(-c2c(-c3ccc(Oc4nccc(C)n4)cc3F)c3c(N)ncnc3n2C)cc1 [Example 425],< 100
5,C=C(C)C(=O)Nc1ccc(-c2c(-c3ccc(C(=O)N(C)CC(F)(F)F)cc3)c3c(N)ncnc3n2C)cc1 [Example 304],< 100
6,C=C(C)C(=O)Nc1ccc(-c2c(-c3ccc(Oc4cccc(F)c4)nc3)c3c(N)ncnc3n2C)cc1 [Example 167],1000 to 100000
7,C=C(C)C(=O)Nc1ccc(-c2c(-c3ccc(Cn4nccc4C)cc3)c3c(N)ncnc3n2C)cc1 [Example 266],1000 to 100000
8,C=C(C)C(=O)Nc1ccc(-c2c(-c3ccc(C(=O)N(C)CC(C)(C)O)cc3)c3c(N)ncnc3n2C)cc1 [Example 368],250 to 1000
9,"C=C(C)C(=O)Nc1ccc(-c2c(-c3ccc(C(=O)N4CC[C@@H]5C[C@@H]54)cc3)c3c(N)ncnc3n2C)c(F)c1 (single isomer, unassigned) [Example 464]",< 100
10,C=CC(=O)Nc1ccc(-c2c(-c3ccc(Oc4nccc(C)n4)c(OC)c3)c3c(N)ncnc3n2C)cc1 [Example 38],< 100
11,C=C(C)C(=O)Nc1ccc(-c2c(-c3ccc(C(=O)N4CC5CC4C5)cc3F)c3c(N)ncnc3n2C)cc1 [Example 562],100 to 250
12,C=C(C)C(=O)Nc1ccc(-c2c(-c3ccc(N4CCCCC4=O)cc3)c3c(N)ncnc3n2C)cc1 [Example 186],1000 to 100000
13,"C=C(C)C(=O)Nc1ccc(-c2c(C3=CC[C@@H](C(=O)N4CCC[C@H]4C#N)CC3)c3c(N)ncnc3n2C)cc1 (single isomer, unassigned) [Example 582]",< 100
14,C=C(C)C(=O)Nc1ccc(-c2c(-c3ccc(C(=O)N4CCCC4)cc3)c3c(N)ncnc3n2C)cc1 [Example 95],100 to 250
15,C=CC(=O)N1CCC(c2c(-c3ccc(-c4noc(C)n4)cc3)c3c(N)ncnc3n2C)C1 (stereo not shown) [Example 767],250 to 1000
16,C=C(C)C(=O)Nc1ccc(-c2c(-c3ccc(C(=O)N[C@@H](CO)CC4CC4)cc3)c3c(N)ncnc3n2C)cc1 [Example 329],< 100
17,C=C(C)C(=O)Nc1ccc(-c2c(-c3ccc(C(=O)N4CCCC4)cc3)c3c(N)ncnc3n2C)c(OC)c1 [Example 433],< 100
18,C=C(C)C(=O)Nc1ccc(-c2c(-c3ccc(S(=O)(=O)NCC(C)(C)O)cc3)c3c(N)ncnc3n2C)cc1 [Example 310],1000 to 100000
19,C=CC(=O)N1CCC(c2c(-c3cnn(-c4cccnc4)c3)c3c(N)ncnc3n2C)C1 (stereo not shown) [Example 778],< 100

# Further lines, results first:
row,IC50 [nM],Structure (SMILES)
1,100 to 250,C=CC(=O)Nc1ccc(-c2c(C3=CCC(NC(C)=O)CC3)c3c(N)ncnc3n2C)cc1 (stereo not shown) [Example 171]
2,< 100,C=C(C)C(=O)Nc1ccc(-c2[nH]c3ncnc(N)c3c2-c2ccc(Oc3cccc(C)n3)c(OCC)c2)cc1 [Example 788]
3,< 100,C=CC(=O)Nc1ccc(-c2c(-c3ccc(Oc4cccc(C)n4)cc3)c3c(N)ncnc3n2C)cc1F [Example 11]
4,1000 to 100000,C=C(C)C(=O)Nc1ccc(-c2c(-c3ccc(C(=O)N4CCOCC4)cc3)c3c(N)ncnc3n2C)cc1 [Example 176]
5,< 100,C=C(C)C(=O)Nc1ccc(-c2c(-c3ccc(C(=O)N[C@@H](COC)C4CC4)cc3)c3c(N)ncnc3n2C)cc1 [Example 346]
6,1000 to 100000,C=C(C)C(=O)Nc1ccc(-c2c(C3=CCC(C(=O)NC)CC3)c3c(N)ncnc3n2C)cc1 (stereo not shown) [Example 201]
7,< 100,C=C(C)C(=O)Nc1ccc(-c2c(-c3ccc(C(=O)NC4CCOC4)cc3)c3c(N)ncnc3n2C)cc1 (stereo not shown) [Example 283]
8,100 to 250,CC#CC(=O)N1CCC(c2c(-c3ccc(Oc4cccc(C)n4)cc3)c3c(N)ncnc3n2C)CC1 [Example 695]
9,< 100,C=C(C)C(=O)Nc1ccc(-c2c(-c3ccc(C(=O)NC(CF)CF)cc3)c3c(N)ncnc3n2C)cc1 [Example 371]
10,< 100,C=CC(=O)N1CCCC(n2cc(-c3c(-c4ccc(Oc5cccc(C)n5)cc4)c4c(N)ncnc4n3C)cn2)C1C (stereo not shown) [Example 627]
